Test results reported in paper PMC11083148, “Structure–Activity Relationship Studies on Highly Functionalized Pyrazole Hydrazones and Amides as Antiproliferative and Antioxidant Agents” (International Journal of Molecular Sciences, 2024).

What was measured:
TK-10 = test: NCI screening, Renal Cancer; type: cell-based; conditions: TK-10, Renal Cancer; 10 µM
Procedure: (§1) In addition, 11a and 17 (representative compounds of the acylhydrazone and amide series) were selected by the National Cancer Institute (NCI, Germantown, MD, USA) and tested at a fixed concentration of 10 µM against a panel of fifty-nine different cancer cell lines, including highly metastatic tumors (Table 2).

CAKI-1 = test: NCI screening, Renal Cancer; type: cell-based; conditions: CAKI-1, Renal Cancer; 10 µM
Procedure: as §1

SN12C = test: NCI screening, Renal Cancer; type: cell-based; conditions: 10 µM
Procedure: as §1

RXF 393 = test: NCI screening, Renal Cancer; type: cell-based; conditions: RXF 393, Renal Cancer; 10 µM
Procedure: as §1

washed platelets = test: ROS assay in platelets (DCFH-DA, thrombin-stimulated); type: cell-based, human; conditions: Homo sapiens, Platelet, 0.1 U/mL thrombin, mean ± SD, read-out: IC50 ROS production inhibition
Outline: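 Washed human platelets (1.0 × 10^8/mL) in pH 7.4 HEPES buffer were pre-incubated 15 min at 37 °C with compound, then stimulated with 0.1 U/mL thrombin. ROS was read as DCF fluorescence from DCFH-DA by flow cytometry. IC50 comes from three-point concentration-response nonlinear regression versus saline control, mean of six experiments.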

Hep-G2 = test: MTT assay, antiproliferative activity; type: cell-based; conditions: Homo sapiens, HepG2, 48h
Outline: (§2)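 Cells plated 16 h, then exposed to compounds at 10 μM final for 48 h at 37 °C, 5% CO2. MTT added for 4 h, formazan dissolved in DMSO, absorbance read at 570 nm; values as percent of DMSO-only control, mean of three experiments in six replicates.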

A549 = test: MTT assay, antiproliferative activity; type: cell-based; conditions: Homo sapiens, 48h, read-out: Mean Growth Percentage
Outline: as §2

MDA-MB231 = test: MTT assay, antiproliferative activity; type: cell-based; conditions: Homo sapiens, MDA-MB-231, 48h
Outline: as §2

SK-BR3 = test: MTT assay, antiproliferative activity; type: cell-based; conditions: Homo sapiens, SK-BR-3, 48h
Outline: as §2

GM-6114 = test: MTT assay, cytotoxicity on normal fibroblasts; type: cell-based; conditions: human, 48 h, 10 µM
Procedure: Pyrazole acylhydrazones 10–13 and amides 14–22 were tested by MTT assay to evaluate their antiproliferative and cytotoxicity properties against a panel of eight tumor cell lines and normal fibroblasts.
The following cell lines were used for MTT assays: SKOV-3 (ovarian adenocarcinoma, ATCC, Manassas, VA, USA); MCF-7 (breast adenocarcinoma, Biologic Bank and Cell Factory, IRCCS Policlinico San Martino, Genoa, Italy); Hep-G2 (hepatocellular carcinoma, ATCC, Manassas, VA, USA); SK-MEL28 (skin melanoma, Biologic Bank and Cell Factory, IRCCS Policlinico San Martino, Genoa, Italy), GM-6114 (embryonic human fibroblast, ATCC, Manassas, VA, USA); MDA-MB231 (breast adenocarcinoma, Biologic Bank and Cell Factory, IRCCS Policlinico San Martino, Genoa, Italy); HeLa (cervical adenocarcinoma, Biologic Bank and Cell Factory, IRCCS Policlinico San Martino, Genoa, Italy); SK-BR3 (breast andenocarcinoma, Biologic Bank and Cell Factory, IRCCS Policlinico San Martino, Genoa, Italy); A549 (lung carcinoma, Biologic Bank and Cell Factory, IRCCS Policlinico San Martino, Genoa, Italy); HUVEC (Human Umbilical Vein Endothelial Cells, ATCC, Manassas, VA, USA). All cell lines were grown in their medium with 10% FBS, 2 mM Glutamine, and 1% penstrep and incubated at 37 °C in 5% CO2 in a humidified environment. The cell lines were plated in 96-well plates at an adequate number to reach 80–90% confluence at the end of the assay. 16 h after cell plating, a 10 mM DMSO stock solution of the compounds was diluted in growth medium and added at a final working concentration of 10 μM. After 48h of incubation, a 2 mg/mL PBS solution of MTT (3-(4,5-dimethyl-2-thiazolyl)-2,5-diphenyl-2H-tetrazolium bromide) was added (30 μL/well). After 4h, the supernatant was removed, and the Formazan precipitates were dissolved in DMSO (100 μL/well). The 96-well plates were incubated for 20 min, and absorbance was measured at 570 nm using a plate reader. The results are expressed as a percentage ratio over control samples (100%) in which the cells were incubated with the same amount of DMSO but without compounds. Each value is the mean of three independent experiments run in six replicates.

KM12 = test: NCI screening, Colon Cancer; type: cell-based; conditions: 10 µM
Procedure: as §1

HCC-2998 = test: NCI screening, Colon Cancer; type: cell-based; conditions: HCC-2998, Colon Cancer; 10 µM
Procedure: as §1

COLO 205 = test: NCI screening, Colon Cancer; type: cell-based; conditions: COLO 205, Colon Cancer; 10 µM
Procedure: as §1

| SMILES | Growth Percentage (%) (TK-10) | Growth Percentage (%) (CAKI-1) | Growth Percentage (%) (SN12C) | Growth Percentage (%) (RXF 393) | IC50 (washed platelets) [µM] | Mean growth percentage at 10 µM (Hep-G2) [%] | activity at 10 µM (A549) [%] | Mean growth percentage at 10 µM (MDA-MB231) [%] | Mean growth percentage at 10 µM (SK-BR3) [%] | Mean Growth Percentage (GM-6114) [%] | melting point [°C] | Growth Percentage (%) (KM12) | Growth Percentage (%) (HCC-2998) | Growth Percentage (%) (COLO 205) |
| --- | --- | --- | --- | --- | --- | --- | --- | --- | --- | --- | --- | --- | --- | --- |
| COc1ccc(/C=N/NC(=O)c2c(N)nn(C)c2Nc2ccccc2)cc1 [11a, (E)-3-amino-N′-(4-methoxybenzylidene)-1-methyl-5-(phenylamino)-1H-pyrazole-4-carbohydrazide] | 89.16 | 39.84 | 57.59 | 37.26 | 123 ± 12 | 75 | 60.8 | 72 | 57 | 69.81 | 208 to 210 | 27.82 | 59.18 | 35.82 |
| CCOC(=O)c1c(NC(=O)C2CC2)nn(C)c1Nc1ccccc1 [compound 17, Ethyl 3-(cyclopropanecarboxamido)-1-methyl-5-(phenylamino)-1H-pyrazole-4-carboxylate] | 107.78 | 86.39 | 104.27 | 101.07 | 573 | 103 | 75.8 | 127 | 106 | 65.92 | 144 to 145 | 105.43 | 114.15 | 106.91 |
